The source of these data is US20260258032A1, “TYROSINE KINASE 2 INHIBITORS AND USES THEREOF” (BIOGEN MA INC., priority 2022, published 2026).

Assay [1] deals with Tyk2 kinase activity on STAT4. Nature of the assay: pSTAT4 cell assay (MSD, NK92 cells). The class given is cell-based. Particulars: compounds 1 hr, stimulated 15 minutes. In outline:
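Read-out: phospho-STAT in NK92 lysates, MSD format, anti-STAT4 antibodies. Cells were serum-starved, given compound for 1 hr (10 μM top, four-fold, 10 points) and IL2-stimulated (30 ng/mL, 15 min). Normalized percent activity vs log concentration, 4-parameter logistic fit gave IC50.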

In assay [2] the target is T1, JH2 domain of human Tyk2 (Homo sapiens, UniProt P29597).
T1 construct: 10×His-tagged TYK2 JH2 domain (amino acid 575-876)
T1 sequence (P29597 575-876): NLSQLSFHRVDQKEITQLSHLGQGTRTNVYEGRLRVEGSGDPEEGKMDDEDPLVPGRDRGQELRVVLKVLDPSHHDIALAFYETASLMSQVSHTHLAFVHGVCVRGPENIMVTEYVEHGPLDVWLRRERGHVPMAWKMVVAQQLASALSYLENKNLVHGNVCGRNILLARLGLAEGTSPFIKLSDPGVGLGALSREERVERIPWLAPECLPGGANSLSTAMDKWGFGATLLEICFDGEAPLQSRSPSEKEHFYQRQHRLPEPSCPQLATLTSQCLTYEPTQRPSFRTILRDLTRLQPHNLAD
Nature of the assay: JH2 biochemical assay (TR-FRET probe displacement). The class given is binding. Particulars: JH2 biochemical assay. A digest of the protocol: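 A probe-displacement TR-FRET readout: compounds, tested in 3-fold, 10-point dilutions starting at […], compete with 2 nM tracer for 2 nM His-tagged JH2 (residues 575-876) detected by 0.1 nM Tb-anti-His over 60 min. IC50 comes from 4-parameter fits of normalized 520/495 nm ratios.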

As a reminder, the IC50 is the midpoint of a concentration-inhibition curve. A high value points to lower potency.

Structures can show the parent of a compound that is named as a salt.

Take `CC(=O)Nc1cc2c(cn1)C1(CC1)CN2c1cc(C)cc(C23COC(C)(C2)C3)n1` [Example 306, N-(1′-(4-methyl-6-(1-methyl-2-oxabicyclo[2.1.1]hexan-4-yl)pyridin-2-yl)-1′,2′-dihydrospiro[cyclopropane-1,3′-pyrrolo[3,2-c]pyridin]-6′-yl)acetamide]: the IC50 in assay [1] is no less than 1 µM; in assay [2] it was 0.01 to 0.1 µM.

Take `CCc1cc(N2CC3(CC3)c3cnc(NC(N)=O)cc32)nc(C(C)(F)F)n1` [Example 309, 1-(1′-(2-(1,1-difluoroethyl)-6-ethylpyrimidin-4-yl)-1′,2′-dihydrospiro[cyclopropane-1,3′-pyrrolo[3,2-c]pyridin]-6′-yl)urea]: the half-inhibitory concentration (IC50) in assay [1] and in assay [2] was no more than 0.01 µM each time.

As for `CC(=O)Nc1cc2c(cn1)C1(CC1)CN2c1cc(-c2cnn(C)c2F)nc(C(C)(F)F)n1` [Example 310, N-(1′-(2-(1,1-difluoroethyl)-6-(5-fluoro-1-methyl-1H-pyrazol-4-yl)pyrimidin-4-yl)-1′,2′-dihydrospiro[cyclopropane-1,3′-pyrrolo[3,2-c]pyridin]-6′-yl)acetamide], the values for the half-inhibitory concentration (IC50) in assay [1] and in assay [2] were 0.01 to 0.1 µM and no more than 0.01 µM, respectively.

Turning to `CCc1cc(N2CC3(CC3)c3cnc(NC(=O)OC)cc32)nc(C(C)(F)F)n1` [Example 311, Methyl (1′-(2-(1,1-difluoroethyl)-6-ethylpyrimidin-4-yl)-1′,2′-dihydrospiro[cyclopropane-1,3′-pyrrolo[3,2-c]pyridin]-6′-yl)carbamate trifluoroacetate], the IC50 is 0.01 to 0.1 µM in assay [1] and no more than 0.01 µM in assay [2].

For `CC(=O)Nc1cc2c(cn1)C1(CC1)CN2c1cc(C)nc(C(C)(C)F)n1` [Example 312, N-(1′-(2-(2-fluoropropan-2-yl)-6-methylpyrimidin-4-yl)-1′,2′-dihydrospiro[cyclopropane-1,3′-pyrrolo[3,2-c]pyridin]-6′-yl)acetamide], the IC50 in assay [1] was 0.01 to 0.1 µM; in assay [2], no more than 0.01 µM.

On to `COc1cccc(N2CC3(CC3)c3cnc(NC(C)=O)cc32)n1` [Example 313, N-(1′-(6-methoxypyridin-2-yl)-1′,2′-dihydrospiro[cyclopropane-1,3′-pyrrolo[3,2-c]pyridin]-6′-yl)acetamide], for which the figures for the IC50 in assay [1] and in assay [2] were no less than 1 µM and 0.01 to 0.1 µM, respectively.

On to `CCc1cc(N2CC3(CC3)c3cnc(NC(C)=O)cc32)nc(C)n1` [Example 314, N-(1′-(6-ethyl-2-methylpyrimidin-4-yl)-1′,2′-dihydrospiro[cyclopropane-1,3′-pyrrolo[3,2-c]pyridin]-6′-yl)acetamide], for which the figures for the half-inhibitory concentration (IC50) in assay [1] and in assay [2] were no less than 1 µM and 0.01 to 0.1 µM, respectively.

`COCC(F)(F)c1cc(C)cc(N2CC3(CC3)c3cnc(NC(C)=O)cc32)n1` [Example 315, N-(1′-(6-(1,1-difluoro-2-methoxyethyl)-4-methylpyridin-2-yl)-1′,2′-dihydrospiro[cyclopropane-1,3′-pyrrolo[3,2-c]pyridin]-6′-yl)acetamide trifluoroacetate]: the half-inhibitory concentration (IC50) was no less than 1 µM in assay [1] and 0.01 to 0.1 µM in assay [2].

As to `CC(=O)Nc1cc2c(cn1)C1(CC1)CN2c1cc(C)cc(C(F)(F)CF)n1` [Example 316, N-(1′-(4-methyl-6-(1,1,2-trifluoroethyl)pyridin-2-yl)-1′,2′-dihydrospiro[cyclopropane-1,3′-pyrrolo[3,2-c]pyridin]-6′-yl)acetamide trifluoroacetate], the half-maximal inhibitory concentration (IC50) in assay [1] is 0.01 to 0.1 µM; in assay [2] it was no more than 0.01 µM.

In the case of `COC1CC(c2nc(C)cc(N3CC4(CC4)c4cnc(NC(C)=O)cc43)n2)C1` (centres unmarked) [Example 317, N-(1′-(2-(3-methoxycyclobutyl)-6-methylpyrimidin-4-yl)-1′,2′-dihydrospiro[cyclopropane-1,3′-pyrrolo[3,2-c]pyridin]-6′-yl)acetamide], the values for the half-maximal inhibitory concentration (IC50) in assay [1] and in assay [2] were 0.1 to 1 µM and no more than 0.01 µM, respectively.

Take `CC(=O)Nc1cc2c(cn1)C1(CC1)CN2c1cc(C)nc(C23COC(C)(C2)C3)n1` [Example 318, N-(1′-(6-methyl-2-(1-methyl-2-oxabicyclo[2.1.1]hexan-4-yl)pyrimidin-4-yl)-1′,2′-dihydrospiro[cyclopropane-1,3′-pyrrolo[3,2-c]pyridin]-6′-yl)acetamide]: the IC50 is no less than 1 µM in assay [1] and 0.01 to 0.1 µM in assay [2].

With `CC(=O)Nc1cc2c(cn1)C1(CC1)CN2c1cc(C)nc(CCS(C)(=O)=O)n1` [Example 319, N-(1′-(6-methyl-2-(2-(methylsulfonyl)ethyl)pyrimidin-4-yl)-1′,2′-dihydrospiro[cyclopropane-1,3′-pyrrolo[3,2-c]pyridin]-6′-yl)acetamide], the half-maximal inhibitory concentration (IC50) was no less than 1 µM in assay [1] and 0.01 to 0.1 µM in assay [2].

For the molecule `CC(=O)Nc1cc2c(cn1)C1(CC1)CN2c1cc(C)nc(C23COC(C2)C3)n1` [Example 320, N-(1′-(2-(2-oxabicyclo[2.1.1]hexan-4-yl)-6-methylpyrimidin-4-yl)-1′,2′-dihydrospiro[cyclopropane-1,3′-pyrrolo[3,2-c]pyridin]-6′-yl)acetamide], the figures for the IC50 in assay [1] and in assay [2] were 0.01 to 0.1 µM and no more than 0.01 µM, respectively.

As to `CCc1cc(N2CC3(CC3)c3cnc(NC(C)=O)cc32)nc(C2CCOC2)n1` (centres unmarked) [Example 321, N-(1′-(6-ethyl-2-(tetrahydrofuran-3-yl)pyrimidin-4-yl)-1′,2′-dihydrospiro[cyclopropane-1,3′-pyrrolo[3,2-c]pyridin]-6′-yl)acetamide trifluoroacetate], the IC50 in assay [1] is 0.01 to 0.1 µM; in assay [2] it was no more than 0.01 µM.

Turning to `COCC(F)(F)c1nccc(N2CC3(CC3)c3cnc(NC(C)=O)cc32)n1` [Example 323, N-(1′-(2-(1,1-difluoro-2-methoxyethyl)pyrimidin-4-yl)-1′,2′-dihydrospiro[cyclopropane-1,3′-pyrrolo[3,2-c]pyridin]-6′-yl)acetamide], the IC50 in assay [1] and in assay [2] was 0.1 to 1 µM in each case.

On to `CCC(C)(O)CCc1cc(N2CC3(CC3)c3cnc(NC(C)=O)cc32)nc(C(C)(F)F)n1` (centres unmarked) [Example 324, N-(1′-(2-(1,1-difluoroethyl)-6-(3-hydroxy-3-methylpentyl)pyrimidin-4-yl)-1′,2′-dihydrospiro[cyclopropane-1,3′-pyrrolo[3,2-c]pyridin]-6′-yl)acetamide], for which the IC50 in assay [1] was 0.01 to 0.1 µM; in assay [2], no more than 0.01 µM.

With `CC(=O)Nc1cc2c(cn1)C1(CC1)CN2c1cc(CCCOC(C)(C)C)nc(C(C)(F)F)n1` [Example 325, N-(1′-(6-(3-(tert-butoxy)propyl)-2-(1,1-difluoroethyl)pyrimidin-4-yl)-1′,2′-dihydrospiro[cyclopropane-1,3′-pyrrolo[3,2-c]pyridin]-6′-yl)acetamide], the results for the half-maximal inhibitory concentration (IC50) in assay [1] and in assay [2] were 0.01 to 0.1 µM and no more than 0.01 µM, respectively.

On to `COCCCc1cc(N2CC3(CC3)c3cnc(NC(C)=O)cc32)nc(C(C)(F)F)n1` [Example 326, N-(1′-(2-(1,1-difluoroethyl)-6-(3-methoxypropyl)pyrimidin-4-yl)-1′,2′-dihydrospiro[cyclopropane-1,3′-pyrrolo[3,2-c]pyridin]-6′-yl)acetamide], for which the IC50 in assay [1] was 0.01 to 0.1 µM; in assay [2], no more than 0.01 µM.

As to `CC(=O)Nc1cc2c(cn1)C1(CC1)CN2c1cc(CCC(C)(C)O)nc(C(C)(F)F)n1` [Example 327, N-(1′-(2-(1,1-difluoroethyl)-6-(3-hydroxy-3-methylbutyl)pyrimidin-4-yl)-1′,2′-dihydrospiro[cyclopropane-1,3′-pyrrolo[3,2-c]pyridin]-6′-yl)acetamide], the half-inhibitory concentration (IC50) in assay [1] is 0.01 to 0.1 µM; in assay [2], no more than 0.01 µM.

Take `CCCCCc1cc(N2CC3(CC3)c3cnc(NC(C)=O)cc32)nc(C(C)(F)F)n1` [Example 328, N-(1′-(2-(1,1-difluoroethyl)-6-pentylpyrimidin-4-yl)-1′,2′-dihydrospiro[cyclopropane-1,3′-pyrrolo[3,2-c]pyridin]-6′-yl)acetamide]: the 50% inhibitory concentration (IC50) in assay [1] was 0.01 to 0.1 µM; in assay [2], no more than 0.01 µM.

As for `CCO/C=C\c1cc(N2CC3(CC3)c3cnc(NC(C)=O)cc32)nc(C(C)(F)F)n1` [Example 329, (Z)-N-(1′-(2-(1,1-difluoroethyl)-6-(2-ethoxyvinyl)pyrimidin-4-yl)-1′,2′-dihydrospiro[cyclopropane-1,3′-pyrrolo[3,2-c]pyridin]-6′-yl)acetamide], the figures for the IC50 in assay [1] and in assay [2] were 0.01 to 0.1 µM and no more than 0.01 µM, respectively.

As to `CCOCCc1cc(N2CC3(CC3)c3cnc(NC(C)=O)cc32)nc(C(C)(F)F)n1` [Example 330, N-(1′-(2-(1,1-difluoroethyl)-6-(2-ethoxyethyl)pyrimidin-4-yl)-1′,2′-dihydrospiro[cyclopropane-1,3′-pyrrolo[3,2-c]pyridin]-6′-yl)acetamide trifluoroacetate], the half-inhibitory concentration (IC50) in assay [1] is 0.01 to 0.1 µM; in assay [2], no more than 0.01 µM.

With `CC(=O)Nc1cc2c(cn1)C1(CC1)CN2c1nc(C)cc(F)n1` [Example 331, N-(1′-(4-fluoro-6-methylpyrimidin-2-yl)-1′,2′-dihydrospiro[cyclopropane-1,3′-pyrrolo[3,2-c]pyridin]-6′-yl)acetamide trifluoroacetate], the concentration for half-maximal inhibition (IC50) in assay [1] is no less than 1 µM; in assay [2], 0.1 to 1 µM.

As to `CC(=O)Nc1cc2c(cn1)C1(CC1)CN2c1cc(C)nc(F)n1` [Example 332, N-(1′-(2-fluoro-6-methylpyrimidin-4-yl)-1′,2′-dihydrospiro[cyclopropane-1,3′-pyrrolo[3,2-c]pyridin]-6′-yl)acetamide trifluoroacetate], the figures for the IC50 in assay [1] and in assay [2] were no less than 1 µM and 0.1 to 1 µM, respectively.

In the case of `CC(=O)Nc1cc2c(cn1)C1(CC1)CN2c1cc(C)cc(OCC(F)(F)F)n1` [Example 333, N-(1′-(4-methyl-6-(2,2,2-trifluoroethoxy)pyridin-2-yl)-1′,2′-dihydrospiro[cyclopropane-1,3′-pyrrolo[3,2-c]pyridin]-6′-yl)acetamide trifluoroacetate], the IC50 in assay [1] is no less than 1 µM; in assay [2] it was 0.1 to 1 µM.
